Results from patent publication US8192767B2, “Antioxidant compositions comprising extracts of myrtle and rosemary” (Nuraging Biotech S.R.L., priority 2006, dated 2012).

Assays:
[1] = tested on: rat pheochromocytoma PC12 cell line; test: ATPLite test: ATP production of PC12 cells after H2O2-induced toxicity; type: cell-based; conditions: H2O2 200 μM without addition of extracts
Description: The test used was the ATPLite™ test (Perkin Elmer, Milan), an ATP monitoring system based on luciferase, which permits assessment of the cytostatic and proliferative effects of various biological compounds. [Cree I. A. and Andreotti P. E. Measurement of cytotoxicity by ATP-based luminescence assay in primary cell cultures and cell lines—Toxicology in Vitro, 11, 553-556; (1997); Guan S., Bao Y. M., Jiang B., An L. Protective effect of protocatechuic acid from Alpinia oxyphylla on hydrogen peroxide-induced oxidative PC12 cell death—Eur. J. Pharmacol. 24: 538; (2006)].
The rat pheochromocytoma PC12 cell line (European Collection of Cell Cultures—ECACC, Sigma Aldrich, Milan) was used to evaluate the potential protective effects of extracts of rosemary (the same extract as described above in example 1) and of myrtle (the same extract as described above in example 2) against the toxicity induced by hydrogen peroxide (H2O2). The cells were grown on 96-well plates treated with poly-D-lysine (Sigma Aldrich, Milan) in D-MEM culture medium added with fetal bovine serum (FBS), penicillin/streptomycin, gentamycin, L-glutamine (all Invitrogen, Milan). […] After 24 hours the activity of the extracts on ATP production was evaluated using a Victor 3 spectrophotometer (Perkin Elmer, Milan). […]

[2] = DPPH (2,2-diphenyl-1-picryl-hydrazyl) spectrophotometric antioxidant test in ethanol, 517 nm; type: biochemical; conditions: DPPH 6.0×10^−6 M
Description: The antioxidant activity of the combination which is the object of the present invention can be assayed in vitro using the DPPH (2,2-diphenyl-1-picryl-hydrazyl) spectrophotometric method. This method makes it possible to determine the antioxidant potential of a molecule to be assayed by measuring the variation of the absorbance of the radical DPPH in its presence at the wavelength of 517 nm (as reported in the literature) [Blois M. S., Antioxidant determination by the use of a stable free radical—Nature, 181:1199-1200; (1958)], according to the reaction: Z·+AH=ZH+A· [1] where: • Z· is the radical DPPH • AH is the single antioxidant (reducing) molecule present in the composition or in the extract • ZH is the reduced form of DPPH • A· is the free radical produced by oxidation of the antioxidant molecule.
The greater the reduction of the absorbance of the radical DPPH in solution, the greater will be the antioxidant potential of the molecule studied. The final results of the assay are expressed as EC50, i.e. as the concentration of antioxidant molecule at which there is a 50% reduction of the DPPH radical according to the following formula: % Inhibition=[A(T0)−A(Tn/A(T0)] • A(T0)=absorbance of the control sample at time 0 • A(Tn)=absorbance in the presence of the antioxidant sample at time n.
The antioxidant capacity of the combination according to the present invention was assayed in ethanol, using a DPPH concentration of 6.0×10^−6 M and final concentrations of each extract, previously solubilised in ethanol, ranging from 1 mcg/ml to 3 mg/ml. For the purposes of evaluating the synergistic effect the extracts were also assayed in a mixture in ratios ranging from 0.1:1 to 9.9:1. The myrtle and rosemary extracts were each subjected to the same extraction procedure, selected from among those indicated above, then brought to dryness and redissolved in ethanol at the desired concentrations so as to standardise the evaluation methodology. The absorbance was then determined at the wavelength of 517 nm in 1 cm quartz cells.

Compound	ATP production vs vehicle [1]	decrease in the absorbance of DPPH ([2]; BHA 0.01 mg/ml in ethanol)	decrease in the absorbance of DPPH ([2]; BHA 0.1 mg/ml in ethanol)	decrease in the absorbance of DPPH ([2]; BHA 1 mg/ml in ethanol)
OO [H2O2, hydrogen peroxide]	−80%±4.1	–	–	–
COc1ccc(O)c(C(C)(C)C)c1 [BHA, butylated hydroxyl anisol]	–	96.63%	95.41%	92.18%
